Reference: patent US10279046B2, “Eye drop composition for treating ocular inflammatory disease and preparation method therefor” (CATHOLIC UNIVERSITY INDUSTRY-ACADEMIC COOPERATION FOUNDATION, priority 2013, dated 2019)

Test system: corneal damage model (alkali burn)
Assay: Corneal damage model (alkali burn) with NaOH: corneal edema and inflammatory cells (hematoxylin-eosin and F4/80 staining)
Type: in vivo, rat (Sprague Dawley)
Conditions: 0.1 mg/ml (0.01%) sulfasalazine, twice a day
Experimental: A white […] (Sprague Dawley, 300 g, male) was used as an animal, and a corneal damage model (alkali burn) due to a chemical drug using NaOH was used. A paper disk of 3 mm was dipped in a 0.1 N NaOH solution (50 ul), and the cornea was covered with the paper disk for 30 seconds to induce the cornea to be damaged. The inflammation reaction in the cornea was confirmed by performing hematoxylin eosin staining and immunostaining on the F4/80 antigen. The analysis of corneal edema was performed using a ratio of corneal epithelium and corneal stroma.
After the damage to the cornea, the solubilized sulfasalazine and the sulfasalazine-hyaluronic acid eye drop prepared in the Example 1 were administered twice a day, respectively. 0.1% hyaluronic acid was administered to the control group.
Three days after the damage to the cornea, the eyeball was removed and a paraffin block was prepared to make a tissue slice, and the hematoxylineosin staining and the immunostaining on the F4/80 antigen as a macrophage marker were performed.
The analysis on the inflammatory cells was performed with respect to the number of macrophages (F4/80 positive cells) present in the cornea.

O=C(O)c1cc(/N=N/c2ccc(S(=O)(=O)Nc3ccccn3)cc2)ccc1O [sulfasalazine solution, sulfasalazine]
number of macrophages (F4/80 positive cells) present in the cornea (after inducement of inflammation 31.5±4.9): 21.3±5.5
ratio of corneal epithelium and stroma (corneal edema) (three days after damage, normal 4.6±1, after inducement of inflammation 10±2.5): 7.1±2.1
